{"source": "paper PMC9415509", "about": "“Pro-Apoptotic Antitumoral Effect of Novel Acridine-Core Naphthoquinone Compounds against Oral Squamous Cell Carcinoma” (Molecules, 2022)", "key": {"SCC25 OSCC cell line": {"system": "SCC25 OSCC cell line", "assay": "MTT cell viability assay (cytotoxicity), SCC25", "assay_type": "cell-based, human", "method": "(§1) Cells and reagents. Human SCC-4, SCC-9, and SCC-25 cells, derived from a human oral tongue SCC (squamous cell carcinoma) were obtained from the ATCC (CRL-1624, CRL-1629, and CRL-1628, respectively) and maintained in 1:1 DMEM/F12 (Dulbecco’s modified Eagle medium and Ham’s F12 medium; Gibco (Thermo Fisher, Waltham, MA, USA)) supplemented with 10% (v/v) FBS (fetal bovine serum; Invitrogen, Thermo Fisher, Waltham, MA, USA) and 400 ng/mL hydrocortisone (Sigma-Aldrich Co., St. Louis, MO, USA). Primary normal human gingival fibroblasts were obtained from the ATCC (PCS-201-018) and maintained in DMEM supplemented with 10% (v/v) FBS and were used in a maximum of six passages. The cells were grown in a humidified environment containing 5% CO2 at 37 °C. […] Carboplatin stock was prepared in water (Fauldcarbo®; LibbsFarmacêutica, São Paulo, SP, Brazil) and was used as a standard anticancer compound.\n(§2) Cell viability assay (cytotoxicity) and compound stability assay. The viability of SCC cell lines and primary human fibroblast cells was evaluated using the MTT assay as in [48]. Briefly, the cells were grown in triplicates in 96-well plates (5 × 10^3 cells/well) until confluence. Then, the medium was removed, fresh medium was added, and the cells were returned to the incubator in the presence of different compounds. DMSO at the same concentrations was used as a 100% cell viability control. After 48 h, the cells were incubated with 5 mg/mL MTT reagent (3-(4,5-dimethyl-2-thiazolyl)-2,5-diphenyl-2-H-tetrazolium bromide) (Sigma-Aldrich Co., St. Louis, MO, USA) for 3.5 h. After that, formazan crystals were dissolved in MTT solvent solution (DMSO/methanol 1:1 v/v) and the absorbance at 560 nm was evaluated using an EPOCH microplate spectrophotometer (BioTek Instruments, Winooski, VT, USA) with the background absorbance at 670 nm subtracted.\n(§3) Statistical analysis, IC50 calculation. The data are presented as means ±\\SD. IC50 values for the MTT assays were obtained by nonlinear regression using the […] 5.0 program (Intuitive Software for Science, San Diego, CA, USA) from at least three independent experiments. A dose–response (inhibitor) vs. response curve using the least squares method was used to determine the IC50, SD, and R^2 of the data. The selectivity index was calculated as SI = IC50 of the compound in normal oral fibroblast cells/IC50 of the same compound for each oral cancer cell line (SCC-4, SCC-9, and SCC-25) and the mean was calculated when indicated."}, "SCC4 OSCC cell line": {"system": "SCC4 OSCC cell line", "assay": "MTT cell viability assay (cytotoxicity), SCC4", "assay_type": "cell-based, human", "method": "as §1, §2, §3"}, "Hemolysis assay": {"assay": "Hemolysis assay", "assay_type": "cell-based", "details": "human, human erythrocytes, relative to triton x-100 = 100% lysis", "method": "Hemolysis assay. To determine the surfactant power of substances in biological membranes, a hemolysis assay was performed using human blood approved by the Research Ethics Committee of Universidade Federal Fluminense (CAAE: 43134721.4.0000.5626). Erythrocytes were collected for centrifugation at 1500 rpm for 15 min, washed with PBS (phosphate-buffered saline) supplemented with 10 mM glucose, and counted in an automatic cell counter (Thermo Fisher, Waltham, MA, USA). Erythrocytes were then plated in 96-well plates at a concentration of 4 × 10^8 cells/well in triplicates, and 10 µL of compounds was added at a final concentration of 300 µM in PBS with glucose (final volume 100 µL). In total, 10 µL of PBS was used as a negative control and 10 µL of PBS with 0.1% Triton ×100 as a positive control. Data reading was performed with EPOCH (BioTek Instruments, Winooski, VT, USA) at an absorbance of 540 nm, and the statistical data were generated using the […] Prism 5.0 program (Intuitive Software for Science, San Diego, CA, USA)."}, "C57BL/6 female mice": {"system": "C57BL/6 female mice", "assay": "In vivo acute toxicity study", "details": "14 days", "method": "In vivo acute toxicity study. The acute toxicity study for compound 4e was performed in twelve-week-old C57BL/6 female mice via intraperitoneal injection and was approved by the University Animal Ethics Board under registration number 982. All experiments were performed in accordance with Brazilian guidelines and regulations. Dosing and analysis were performed according to 423 OECD guidelines and reviewed by. Each animal group had n = 3 or 4 (as indicated) and received only one intraperitoneal injection (Day 0) of compound 4e dissolved in […] PBS and 3% DMSO. The control group animals received only 3% DMSO in PBS. The first dose of the compound was 100 mg/kg. Subsequent dose levels (200 mg/kg and 400 mg/kg) were determined based on the result obtained from the previous dosing. The animals were examined every day, twice a day, for mortality and morbidity for 14 days, when all animals were anesthetized (ketamine 100 mg/kg and xylazine 10 mg/kg) followed by cervical dislocation. Gross necropsy and histology of the main organs were performed. The animals’ body weights and average food consumption were measured every 7 days. As an indication of morbidity, the following signs were assessed: tremors; convulsion; salivation; diarrhea; lethargy; coma; pain signs; increased rear arching; and mobility impairment. The necropsy included an examination of the external characteristics of the carcass; external body orifices; the abdominal, thoracic, and cranial cavities; organs/tissues of the liver, thymus, right kidney, […], heart, and lung. Major organs were analyzed by histopathology. For more details, see Supplementary Methods."}, "SCC9 cells": {"system": "SCC9 cells", "assay": "ROS production (ROS-Glo H2O2 assay)", "assay_type": "cell-based, human", "details": "SCC9, 2 × IC50, 3, 6, 24 and 48 h", "method": "ROS production. The hydrogen peroxide (H2O2) luminescence assay was performed using the ROS-Glo™ H2O2 assay kit (Promega Corporation, Madison, WI, USA). […] A plate with wells without cells was used as a control. The cells and cell-free wells remained in treatment at the times of interest and, 2 h before the completion of the times, the well volumes were removed to reduce to 40 µL per well. Then, the positive control of menadione, a polycyclic aromatic ketone based on 1,4-naphthoquinone, was used to treat its respective well, and H2O2 substrate was added for all treatments, followed by the incubation of the plate for the 2 h remaining. After the times of 3, 6, 24, and 48 h, the detection solution was added, and the plates remained at room temperature for 20 min, following the reading in the luminometer."}}}
{"smiles": "CC1(C)CC(=O)C2=C(C1)NC1=C(C(=O)c3ccccc3C1=O)C2c1ccc(Cl)cc1Cl", "note": "(stereo not drawn) [4e, 12-(2,4-dichlorophenyl)-3,3-dimethyl-3,4-dihydrobenzo[b]acridine-1,6,11(2H,5H,12H)-trione]", "values": [{"measurement": "IC50", "setting": "SCC25 OSCC cell line; Homo sapiens, SCC-25, SCC25, 48 h, MTT, read-out: Oral Tumor Cells SCC25 IC50", "value": 21.5, "unit": "µM"}, {"measurement": "SCC25 S.I.", "setting": "SCC25 OSCC cell line; IC50 normal oral fibroblasts / IC50 SCC25", "value": 4.1}, {"measurement": "IC50", "setting": "SCC4 OSCC cell line; Homo sapiens, SCC-4, SCC4, 48 h, MTT, read-out: Oral Tumor Cells SCC4 IC50", "value": 53.8, "unit": "µM"}, {"measurement": "SCC4 S.I.", "setting": "SCC4 OSCC cell line; IC50 normal oral fibroblasts / IC50 SCC4", "value": 1.6}, {"measurement": "hemolysis at 300 µM", "setting": "Hemolysis assay", "value": "< 3", "unit": "%"}, {"measurement": "Change in Body Weight", "setting": "C57BL/6 female mice; 100 mg/kg single i.p. dose", "value": "Absent"}, {"measurement": "Change in Food Consumption", "setting": "C57BL/6 female mice; 100 mg/kg single i.p. dose", "value": "Absent"}, {"measurement": "Gross Necropsy", "setting": "C57BL/6 female mice; 100 mg/kg single i.p. dose", "value": "No alteration"}, {"measurement": "Histology", "setting": "C57BL/6 female mice; 100 mg/kg single i.p. dose", "value": "No significant alteration in comparison to control"}, {"measurement": "Morbidity", "setting": "C57BL/6 female mice; 100 mg/kg single i.p. dose", "value": "Absent"}, {"measurement": "Change in Body Weight", "setting": "C57BL/6 female mice; 200 mg/kg single i.p. dose", "value": "Absent"}, {"measurement": "Change in Food Consumption", "setting": "C57BL/6 female mice; 200 mg/kg single i.p. dose", "value": "Absent"}, {"measurement": "Gross Necropsy", "setting": "C57BL/6 female mice; 200 mg/kg single i.p. dose", "value": "No alteration"}, {"measurement": "Histology", "setting": "C57BL/6 female mice; 200 mg/kg single i.p. dose", "value": "Presence of mild Perivascular and periportal lymphocyte focus and Bronchus-Associated Lymphoid Tissue (BALT)"}, {"measurement": "Morbidity", "setting": "C57BL/6 female mice; 200 mg/kg single i.p. dose", "value": "Absent"}, {"measurement": "Change in Body Weight", "setting": "C57BL/6 female mice; 400 mg/kg single i.p. dose", "value": "Absent"}, {"measurement": "Change in Food Consumption", "setting": "C57BL/6 female mice; 400 mg/kg single i.p. dose", "value": "Absent"}, {"measurement": "Gross Necropsy", "setting": "C57BL/6 female mice; 400 mg/kg single i.p. dose", "value": "No alteration"}, {"measurement": "Histology", "setting": "C57BL/6 female mice; 400 mg/kg single i.p. dose", "value": "Presence of mild Perivascular and periportal lymphocyte focus and Bronchus-Associated Lymphoid Tissue (BALT)"}, {"measurement": "Morbidity", "setting": "C57BL/6 female mice; 400 mg/kg single i.p. dose", "value": "Absent"}, {"measurement": "ROS production", "setting": "SCC9 cells", "value": "low production of ROS"}]}
